Measurements from PubChem BioAssay (NCI).
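Step 1: Grow cells in 96-well plates. Step 2: Expose to compound for 48 hours at 5 concentrations. Step 3: Interpolate endpoints linearly; if unreached, use highest concentration. GI50 = concentration required for 50% inhibition of growth. At the TGI there is no net growth.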

How the values were obtained:
Experiment in all cases: NCI-60 cell line screen, 48 h
UACC-62 melanoma = system: UACC-62 melanoma
LOX IMVI melanoma = system: LOX IMVI melanoma
UO-31 renal = system: UO-31 renal
NCI-H226 lung = system: NCI-H226 lung
NCI/ADR-RES ovarian = system: NCI/ADR-RES ovarian
DU-145 prostate = system: DU-145 prostate
ACHN renal = system: ACHN renal
UACC-257 melanoma = system: UACC-257 melanoma
HCT-116 colon = system: HCT-116 colon
SF-539 CNS = system: SF-539 CNS

| SMILES | TGI (UACC-62 melanoma) | TGI (LOX IMVI melanoma) | TGI (UO-31 renal) | TGI (NCI-H226 lung) | TGI (NCI/ADR-RES ovarian) | TGI (DU-145 prostate) | TGI (ACHN renal) | TGI (UACC-257 melanoma) | TGI (HCT-116 colon) | TGI (SF-539 CNS) | GI50 (UACC-62 melanoma) | GI50 (LOX IMVI melanoma) | GI50 (UO-31 renal) | GI50 (NCI-H226 lung) | GI50 (NCI/ADR-RES ovarian) | GI50 (DU-145 prostate) | GI50 (ACHN renal) | GI50 (UACC-257 melanoma) | GI50 (HCT-116 colon) | GI50 (SF-539 CNS) |
| --- | --- | --- | --- | --- | --- | --- | --- | --- | --- | --- | --- | --- | --- | --- | --- | --- | --- | --- | --- | --- |
| O=C(O)c1cc2ccccc2c(O)c1O | 13 µM | 14.9 µM | 35.4 µM | 42.7 µM | 41.5 µM | 32.3 µM | 31.8 µM | 23.1 µM | 30.7 µM | 38.1 µM |  |  |  |  |  |  |  |  |  |  |
| Cc1c(N=Nc2ccc([N+](=O)[O-])cc2)nc2scc(-c3ccccc3)n12 | > 100 µM | > 100 µM | > 100 µM | > 100 µM | > 100 µM | > 100 µM | > 100 µM | > 100 µM | > 100 µM | > 100 µM |  |  |  |  |  |  |  |  |  |  |
| O=C(/C=C/c1ccc(OCC(=O)N2CCN(c3ccccc3)CC2)cc1)c1ccc(Cl)cc1 | > 95.7 µM | > 100 µM | > 97.2 µM | 97.9 µM | > 100 µM | > 100 µM | 69.7 µM | > 100 µM | > 100 µM | 56.6 µM |  |  |  |  |  |  |  |  |  |  |
| Nc1ccccc1C#C/C=C\C#Cc1ccccc1C(F)(F)F | 3.04 µM | 11.5 µM | 23.4 µM | 19.3 µM | 2.89 µM | 14.7 µM | 15.8 µM | 23.7 µM | > 35.4 µM | 3.55 µM | 255 nM | 441 nM | 4.08 µM | 233 nM | 302 nM | 2700 nM | 323 nM | 536 nM | 432 nM | 669 nM |
| CCCC[C@H]1C(=O)O[C@H](C)[C@H](NC(=O)c2cccc(NC=O)c2O)C(=O)O[C@@H](C)[C@@H]1OC(=O)CC(C)C | 22.1 µM | 19 µM | 33.2 µM | 23.8 µM | 65.6 µM | 40.7 µM | 36.1 µM | 69.6 µM | 19.5 µM | 31.8 µM |  |  |  |  |  |  |  |  |  |  |
| N#Cc1c(C(=O)c2ccccc2)cnn1-c1ccccc1 | > 25 µM | > 25 µM | > 25 µM | > 25 µM | > 25 µM | > 25 µM | > 25 µM | > 25 µM | > 25 µM | > 25 µM | > 25000 nM | > 25000 nM | > 25 µM | > 25000 nM | > 25000 nM | > 25000 nM | > 25000 nM | > 25000 nM | > 25000 nM | > 25000 nM |
| C(=N\Nc1ccccn1)/c1ccccn1 | 2.28 µM | > 100 µM | > 34.1 µM |  | > 39.7 µM |  |  |  | > 100 µM | 2.31 µM | 327 nM | 319 nM | 0.267 µM | 356 nM | 359 nM | 324 nM | 294 nM | 453 nM | 303 nM | 333 nM |
| O=c1cccc(C#CC#C[C@H]2O[C@@H]2CO)o1 | 0.531 µM | 0.901 µM | 6.29 µM | 1.11 µM | 3.37 µM | 3.24 µM | 0.985 µM | 2.91 µM |  | 2.84 µM | 209 nM | 310 nM | 2.59 µM | 309 nM | 927 nM | 1560 nM | 322 nM | 1160 nM | 638 nM | 1070 nM |
| O=C(O)C(=Cc1ccnc2ccccc12)C(=O)O | > 100 µM | > 100 µM |  | > 100 µM | > 100 µM | > 100 µM | > 100 µM | > 100 µM | > 100 µM | > 100 µM |  |  |  |  |  |  |  |  |  |  |
| C1CC[N-]CC1.C1CC[N-]CC1.C1CC[N-]CC1.C1CC[N-]CC1.[Cl][Rh][Cl] |  | > 100 µM | > 100 µM | > 100 µM | > 100 µM | 53.8 µM | > 100 µM | 69.4 µM | > 100 µM | > 100 µM |  | 10200 nM | 34.4 µM | 4470 nM | > 100000 nM | 6300 nM | 50100 nM | 3210 nM | 4750 nM | 5150 nM |
| CC[C@]1(O)CC2CN(CCc3c([nH]c4ccccc34)[C@@](C(=O)OC)(c3cc4c(cc3OC)N(C)[C@H]3[C@@](O)(C(=O)OC)[C@H](OC(C)=O)[C@]5(CC)C=CCN6CC[C@]43[C@@H]65)C2)C1 (some centres not stated) | 8.91 µM | 8.01 µM | 15.9 µM | 0.148 µM | 1.06 µM | 0.0282 µM | > 50 µM |  | 0.269 µM | 0.293 µM | < 5 nM | < 5 nM | 0.511 µM | < 5 nM | 91.2 nM | < 5 nM | 76 nM |  | < 5 nM | < 5 nM |
| CCN(CC)c1ccc(/C=C\c2cc(C)c3cc(C)ccc3n2)cc1 | > 100 µM | > 100 µM | > 100 µM | > 100 µM | > 100 µM | > 100 µM | > 100 µM |  | > 100 µM | 46.8 µM | 3920 nM | 4290 nM | 6.97 µM | 7290 nM | 3100 nM | 9080 nM | 6230 nM |  | 3200 nM | 3790 nM |
| N#CC(=S)Nc1cccc(Cl)c1 | > 100 µM | > 100 µM |  | > 100 µM | > 100 µM | > 100 µM | > 100 µM | > 100 µM | > 100 µM | 93.7 µM |  |  |  |  |  |  |  |  |  |  |
